According to PubChem BioAssay (NCI):
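Cultured in 96-well plates, cells were exposed to test compound for 48 hours across five concentrations. TGI: concentration producing complete growth inhibition.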

Legend:
Test in all cases: NCI anticancer screen, dose series, 48 h
786-0 renal = system: 786-0 renal
A498 renal = system: A498 renal
A549 NSCLC = system: A549 NSCLC
ACHN renal = system: ACHN renal
CAKI-1 renal = system: CAKI-1 renal
CCRF-CEM leukemia = system: CCRF-CEM leukemia
DLD-1 colon = system: DLD-1 colon
DMS 114 small cell lung = system: DMS 114 small cell lung
DMS 273 small cell lung = system: DMS 273 small cell lung
EKVX NSCLC = system: EKVX NSCLC
HCC-2998 colon = system: HCC-2998 colon
HCT-116 colon = system: HCT-116 colon
HCT-15 colon = system: HCT-15 colon
HOP-18 NSCLC = system: HOP-18 NSCLC
HOP-62 NSCLC = system: HOP-62 NSCLC
HOP-92 NSCLC = system: HOP-92 NSCLC
IGROV1 ovarian = system: IGROV1 ovarian
K-562 leukemia = system: K-562 leukemia
KM12 colon = system: KM12 colon
KM20L2 colon = system: KM20L2 colon
LOX IMVI melanoma = system: LOX IMVI melanoma
LXFL 529 NSCLC = system: LXFL 529 NSCLC
M14 melanoma = system: M14 melanoma
MALME-3M melanoma = system: MALME-3M melanoma
MOLT-4 leukemia = system: MOLT-4 leukemia
NCI-H226 lung = system: NCI-H226 lung
NCI-H23 lung = system: NCI-H23 lung
NCI-H460 lung = system: NCI-H460 lung
NCI-H522 lung = system: NCI-H522 lung
OVCAR-3 ovarian = system: OVCAR-3 ovarian
OVCAR-4 ovarian = system: OVCAR-4 ovarian
OVCAR-5 ovarian = system: OVCAR-5 ovarian
OVCAR-8 ovarian = system: OVCAR-8 ovarian
RPMI-8226 leukemia = system: RPMI-8226 leukemia
RXF 393 renal = system: RXF 393 renal
SF-268 CNS = system: SF-268 CNS
SF-295 CNS = system: SF-295 CNS
SF-539 CNS = system: SF-539 CNS
SK-MEL-2 melanoma = system: SK-MEL-2 melanoma
SK-MEL-28 melanoma = system: SK-MEL-28 melanoma
SK-MEL-5 melanoma = system: SK-MEL-5 melanoma
SK-OV-3 ovarian = system: SK-OV-3 ovarian
SN12C renal = system: SN12C renal
SNB-19 CNS = system: SNB-19 CNS
SNB-78 CNS = system: SNB-78 CNS
SR leukemia = system: SR leukemia
SW-620 colon = system: SW-620 colon
TK-10 renal = system: TK-10 renal
U251 CNS = system: U251 CNS
UACC-257 melanoma = system: UACC-257 melanoma
UACC-62 melanoma = system: UACC-62 melanoma
UO-31 renal = system: UO-31 renal
XF 498 CNS = system: XF 498 CNS
COLO 205 colon = system: COLO 205 colon
HL-60(TB) leukemia = system: HL-60(TB) leukemia
HT29 colon = system: HT29 colon
M19-MEL melanoma = system: M19-MEL melanoma
SNB-75 CNS = system: SNB-75 CNS

N#Cc1c2ccccc2c(Cc2ccc3c(c2)OCCOCCOCCOCCOCCO3)c2ccccc12
TGI (786-0 renal): 25.4 µM | TGI (A498 renal): 27.6 µM | TGI (A549 NSCLC): 16.7 µM | TGI (ACHN renal): 21.7 µM | TGI (CAKI-1 renal): 22.2 µM | TGI (CCRF-CEM leukemia): > 100 µM | TGI (DLD-1 colon): 22 µM | TGI (DMS 114 small cell lung): 23.9 µM | TGI (DMS 273 small cell lung): 17.8 µM | TGI (EKVX NSCLC): 35.9 µM | TGI (HCC-2998 colon): 24.7 µM | TGI (HCT-116 colon): 21.3 µM | TGI (HCT-15 colon): 19.2 µM | TGI (HOP-18 NSCLC): 21.8 µM | TGI (HOP-62 NSCLC): 23.6 µM | TGI (HOP-92 NSCLC): 12.2 µM | TGI (IGROV1 ovarian): 19.5 µM | TGI (K-562 leukemia): > 100 µM | TGI (KM12 colon): 17.9 µM | TGI (KM20L2 colon): 21.7 µM | TGI (LOX IMVI melanoma): 22.6 µM | TGI (LXFL 529 NSCLC): 30.4 µM | TGI (M14 melanoma): 18 µM | TGI (MALME-3M melanoma): 20.3 µM | TGI (MOLT-4 leukemia): > 100 µM | TGI (NCI-H226 lung): 24.3 µM | TGI (NCI-H23 lung): 25.3 µM | TGI (NCI-H460 lung): 25.1 µM | TGI (NCI-H522 lung): 31.9 µM | TGI (OVCAR-3 ovarian): 16.4 µM | TGI (OVCAR-4 ovarian): 17.4 µM | TGI (OVCAR-5 ovarian): 30.1 µM | TGI (OVCAR-8 ovarian): 18.3 µM | TGI (RPMI-8226 leukemia): > 100 µM | TGI (RXF 393 renal): 7.94 µM | TGI (SF-268 CNS): 21.1 µM | TGI (SF-295 CNS): 21.3 µM | TGI (SF-539 CNS): 29.7 µM | TGI (SK-MEL-2 melanoma): 19.9 µM | TGI (SK-MEL-28 melanoma): 19.4 µM | TGI (SK-MEL-5 melanoma): 17.5 µM | TGI (SK-OV-3 ovarian): 27.9 µM | TGI (SN12C renal): 22.8 µM | TGI (SNB-19 CNS): 24.5 µM | TGI (SNB-78 CNS): 31.9 µM | TGI (SR leukemia): > 100 µM | TGI (SW-620 colon): 32.1 µM | TGI (TK-10 renal): 19.3 µM | TGI (U251 CNS): 26.2 µM | TGI (UACC-257 melanoma): 22.5 µM | TGI (UACC-62 melanoma): 19.8 µM | TGI (UO-31 renal): 15.4 µM | TGI (XF 498 CNS): 23.5 µM

COc1ccc2c(c1)CCc1c-2[nH]c2cc3c(cc2c1=O)OCO3
TGI (786-0 renal): > 100 µM | TGI (A549 NSCLC): > 100 µM | TGI (ACHN renal): > 100 µM | TGI (CAKI-1 renal): > 100 µM | TGI (CCRF-CEM leukemia): > 100 µM | TGI (COLO 205 colon): > 100 µM | TGI (DLD-1 colon): > 100 µM | TGI (DMS 273 small cell lung): > 100 µM | TGI (EKVX NSCLC): > 100 µM | TGI (HCC-2998 colon): > 100 µM | TGI (HCT-15 colon): > 100 µM | TGI (HL-60(TB) leukemia): > 100 µM | TGI (HOP-18 NSCLC): > 100 µM | TGI (HOP-62 NSCLC): > 100 µM | TGI (HOP-92 NSCLC): > 100 µM | TGI (HT29 colon): > 100 µM | TGI (IGROV1 ovarian): > 100 µM | TGI (K-562 leukemia): > 100 µM | TGI (KM12 colon): > 100 µM | TGI (LOX IMVI melanoma): > 100 µM | TGI (LXFL 529 NSCLC): > 100 µM | TGI (M14 melanoma): > 100 µM | TGI (M19-MEL melanoma): > 100 µM | TGI (MALME-3M melanoma): > 100 µM | TGI (MOLT-4 leukemia): > 100 µM | TGI (NCI-H23 lung): > 100 µM | TGI (NCI-H460 lung): > 100 µM | TGI (NCI-H522 lung): > 100 µM | TGI (OVCAR-4 ovarian): > 100 µM | TGI (OVCAR-8 ovarian): > 100 µM | TGI (RPMI-8226 leukemia): > 100 µM | TGI (SF-539 CNS): > 100 µM | TGI (SK-MEL-2 melanoma): > 100 µM | TGI (SK-MEL-28 melanoma): > 100 µM | TGI (SK-OV-3 ovarian): > 100 µM | TGI (SN12C renal): > 100 µM | TGI (SNB-19 CNS): > 100 µM | TGI (SNB-75 CNS): > 100 µM | TGI (SNB-78 CNS): > 100 µM | TGI (SR leukemia): > 100 µM | TGI (SW-620 colon): > 100 µM | TGI (TK-10 renal): > 100 µM | TGI (U251 CNS): > 100 µM | TGI (UACC-62 melanoma): > 100 µM | TGI (UO-31 renal): > 100 µM | TGI (XF 498 CNS): > 100 µM
